Values of other authors in the PKSmart pharmacokinetics tables (Seal et al. 2025).
*1 amine or outer side, *2 acyl side, *3 side chain or, on linkers, in order; H or OH if unused. Where a SMILES comes first, the peptide text is derived from it. Bridges are numbered along the chain shown (N, C = ends). [ ]: non-standard residue; d: D form. The star is where a group is joined. ξ: configuration not given here. pTerphenylCO(4''-OnC5H11) = CCCCCOc1ccc(-c2ccc(-c3ccc(C(=O)*)cc3)cc2)cc1; ξOrn(4R-OH,5R-OH) = O=C(C(C[C@@H](O)[C@@H](O)N[*:3])N[*:1])[*:2]; ξhTyr(3S-OH,4S-OH) = NC(C(=O)O)[C@H](O)[C@@H](O)c1ccc(O)cc1; X4 = C[C@H]1CN([*:1])C(C(=O)[*:2])[C@H]1O; ξPro(4R-OH) = O=C(O)C1C[C@@H](O)CN1; ξThr(3R) = C[C@@H](O)C(N)C(=O)O

Assay: Lombardo, Berellini, Obach 2018, Drug Metab Dispos 46:1466, doi 10.1124/dmd.118.082966
Conditions: human; for MRT / Vd / clearance / half-life: in vivo, iv; for fraction unbound: plasma

Structure (SMILES)	MRT [h]	Vd [L/kg]	clearance [mL/min/kg]	half-life [h]	fraction unbound
C#C[C@@]1(O)[C@@H](CO)O[C@H](n2ccc(N)nc2=O)[C@@H]1O	11.7	1.1	1.6	10.9	–
O[C@](CO[C@@H]1CN2CCC1CC2)(c1ccccc1)C1CCCC1	17.8	2.12	1.99	15.7	–
CNS(=O)(=O)CCc1ccc2[nH]cc(C3CCN(C)CC3)c2c1	6.1	2.4	6.6	6.6	–
CCCC(NC(C)C(=O)N1C(C(=O)O)C[C@@H]2CCCC[C@@H]21)C(=O)O (stereo partly drawn)	7.6	–	1.7	29	0.16
CC(=O)N[C@H]1[C@H]([C@H](O)[C@H](O)CO)OC(C(=O)O)=C[C@@H]1NC(=N)N	2.4	0.23	1.6	1.7	–
COC(=O)C1=C(C)NC(C)=C(C(=O)OC(C)C)C1c1cccc2nonc12 (stereo not drawn)	1	1.5	26	3.3	0.04
CCNCC(O)c1cccc(O)c1 (stereo not drawn)	2.5	2.1	14	2.2	–
CN(C)[C@@H]1C(O)=C(C(=O)NCN2CCCC2)C(=O)[C@@]2(O)C(O)=C3C(=O)c4c(O)cccc4[C@@](C)(O)[C@H]3C[C@@H]12	9.3	0.54	0.97	8.8	0.5
COc1ccc2cc1Oc1cc3c(cc1OC)CC[N+](C)(C)[C@H]3Cc1ccc(cc1)Oc1c(OC)c(OC)cc3c1[C@@H](C2)[N+](C)(C)CC3	5.6	0.4	1.2	5.1	0.65
Cc1cc(C)c2c(c1)[C@@H](N(Cc1cc(C(F)(F)F)cc(C(F)(F)F)c1)c1nnn(C)n1)CCCN2CC1CCC(C(=O)O)CC1 (stereo partly drawn)	36.1	1.82	0.84	51.9	0.001
CC(=O)C1CC[C@H]2[C@@H]3CC[C@@H]4C[C@H](O)CC[C@]4(C)[C@H]3CC[C@]12C (stereo partly drawn)	1.5	2	22	4.7	0.01
CCc1cnn2c(NCc3ccc[n+]([O-])c3)cc(N3CCCC[C@H]3CCO)nc12	1.1	0.32	4.65	2.1	–
Oc1ccc(C2=Cc3ccc(O)cc3OC2)cc1	0.44	1.55	59.1	0.67	–
Cc1nnc(C(C)C)n1C1C[C@H]2CC[C@@H](C1)N2CC[C@@H](NC(=O)C1CCC(F)(F)CC1)c1ccccc1 (stereo partly drawn)	4.2	–	–	12.8	–
CCN(CC)CCN1C(=O)c2c(c3c4cccc(Cl)c4n([C@@H]4O[C@H](CO)[C@@H](OC)[C@H](O)[C@H]4O)c3c3[nH]c4c(Cl)cccc4c23)C1=O	45.4	8.9	3.13	48.9	–
O=C1N=C(c2ccccc2Cl)c2cc(Cl)ccc2NC1O (stereo not drawn)	22	1.3	1	17	–
Cc1ccccc1OCC(O)CNCCOc1ccc(C(N)=O)cc1 (stereo not drawn)	4.8	4	14	2.5	0.089
CCCNC(=O)NS(=O)(=O)c1ccc(Cl)cc1	70	0.19	0.045	46	–
C=C1/C(=C\C=C2/CCC[C@]3(C)[C@@H]([C@H](C)CCCC(C)(C)O)CC[C@@H]23)C[C@@H](O)C[C@@H]1O	13.3	0.25	0.31	11	–
CCOC(=O)C1=C[C@]2(CC)CCCN3CCc4c(n1c1ccccc41)[C@@H]32	5.68	2.08	6.1	4.83	0.02
CN[C@@H]1C[C@H]2OC(C)([C@@H]1OC)n1c3ccccc3c3c4c(c5c6ccccc6n2c5c31)C(=O)N[C@@H]4O	680	0.15	0.0037	790	0.0022
CCN(C)C(=O)Oc1cccc([C@H](C)N(C)C)c1	1.9	1.3	12	1.4	0.6
COCCN1CCN(Cc2ccc(-c3n[nH]c4c3C(=O)c3c(NC(=O)NN5CCOCC5)cccc3-4)cc2)CC1	8.5	5.9	11.5	9.9	–

Structure (SMILES)	MRT [h]	Vd [L/kg]	clearance [mL/min/kg]	half-life [h]	fraction unbound
COc1cc(CC2c3c(cc(OC)c(OC)c3OC)CC[N+]2(C)CCCOC(=O)CCC(=O)OCCC[N+]2(C)CCc3cc(OC)c(OC)c(OC)c3C2Cc2cc(OC)c(OC)c(OC)c2)cc(OC)c1OC (stereo not drawn)	1.4	0.22	2.7	1.7	0.53
CC1(C)[C@@H](O[C@H]2OC(C(=O)O)[C@@H](O)[C@H](O)[C@H]2O[C@@H]2OC(C(=O)O)[C@@H](O)[C@H](O)[C@H]2O)CC[C@]2(C)C3C(=O)C=C4C5C[C@@](C)(C(=O)O)CC[C@]5(C)CC[C@]4(C)[C@@]3(C)CC[C@@H]12 (stereo partly drawn)	7.83	0.06	0.13	8.83	–
CN(C)N=Nc1ccc(C(=O)O)cc1	3	0.25	1.3	2.5	–
CC(=O)O[C@H]1C[C@@H]2CC[C@@H]3[C@H](CC[C@@]4(C)[C@H]3C[C@H](N3CC[N+](C)(C)CC3)[C@@H]4OC(C)=O)[C@@]2(C)C[C@@H]1N1CC[N+](C)(C)CC1	1.9	0.35	3	1.9	0.98
CN(C)CC(Oc1ccccc1)Oc1ccccc1	3.4	2.8	13.7	4.4	–
O=C(N[C@H](CO)[C@H](O)c1ccc([N+](=O)[O-])cc1)C(Cl)Cl	6.5	0.94	2.4	4.6	–
C[N+](C)(C)C[C@H](O)CC(=O)[O-]	4.2	0.4	1.6	5	1
Cc1c(CN(C)C(=O)C=Cc2cnc3c(c2)CCC(=O)N3)oc2ccccc12	8.4	0.43	0.9	6.4	–
Nc1ccn([C@H]2CO[C@@H](CO)S2)c(=O)n1	6.5	1.18	3	19.2	–
CCOC(=O)c1ccc(C#Cc2ccc3c(c2)C(C)(C)CCS3)nc1	1.56	3.55	37.2	6.22	–
OCCN(CCO)c1nc(N2CCCCC2)c2nc(N(CCO)CCO)nc(N3CCCCC3)c2n1	6.8	–	2	13	–
CN(C)CCn1nnnc1SCC1=C(C(=O)O)N2C(=O)C(NC(=O)Cc3csc(N)n3)[C@H]2SC1 (stereo partly drawn)	0.76	0.26	5.8	0.84	0.5
CC1C(=O)O[C@H]2[C@H](O)C34[C@H]5C[C@@H](C(C)(C)C)C36C(O)C(=O)O[C@H]6OC4(C(=O)O5)[C@@]12O (stereo partly drawn)	6.6	0.91	2.3	5.2	0.8
Cc1ccc(Nc2nccc(N(C)c3ccc4c(C)n(C)nc4c3)n2)cc1S(N)(=O)=O	44.4	0.16	0.06	–	0.01
CC1(C)S[C@@H]2C(NC(=O)C(NC(=O)NC(=N)N)c3ccccc3)C(=O)N2C1C(=O)O (stereo partly drawn)	2.5	0.24	1.6	2.09	0.8
OC(CCN1CCCC1)(c1ccccc1)C1CCCCC1 (stereo not drawn)	14	0.74	0.86	12	–
NC(=O)CN1CC(O)CC1=O (stereo not drawn)	4.9	0.55	1.8	7.5	–
CCNC(=O)OC1CCN(c2nncc3cc(OC)c(OC)cc23)CC1	0.25	0.67	–	–	0.08
C=C(CC(NC(=O)c1ccc(CCc2cnc3nc(N)nc(N)c3n2)cc1)C(=O)O)C(=O)O (stereo not drawn)	3.78	0.7	3.08	8.2	–
CCOc1cc(Cc2cnc(N)nc2N)cc(OCC)c1-n1cccc1	–	2.5	3.5	9.4	0.12
Nc1nc2c(Cc3cccnc3)c[nH]c2c(=O)[nH]1	3.2	1.2	6.2	3	0.86
O=C1CCC(N2C(=O)c3ccccc3C2=O)C(=O)N1 (stereo not drawn)	4.3	0.95	3.4	4.7	0.4
O=S(=O)(Nc1ccccc1)c1cccc(/C=C/C(O)=NO)c1	0.6	0.8	23.6	1.6	0.06

Structure (SMILES)	MRT [h]	Vd [L/kg]	clearance [mL/min/kg]	half-life [h]	fraction unbound
CN(C)CCCN1c2ccccc2CCc2cc(O)ccc21	12	6.6	9.2	10	0.36
CS(=O)(=O)OCCN(CCBr)c1c(C(=O)NCCOP(=O)(O)O)cc([N+](=O)[O-])cc1[N+](=O)[O-]	0.32	0.86	44.8	0.1	–
COc1ccccc1Oc1c(NS(=O)(=O)c2ccc(C(C)(C)C)cc2)nc(-c2ncccn2)nc1OCCO	2.3	0.29	2.1	4.1	0.037
CC(O)Cn1cnc2c1c(=O)n(C)c(=O)n2C (stereo not drawn)	8.39	0.59	1.17	7.8	–
O=C(O)Cn1c(=O)c(=O)[nH]c2cc([N+](=O)[O-])c(-n3ccnc3)cc21	0.6	0.19	5.3	0.78	–
C[n+]1ccccc1C=NO	1.5	0.8	9	1.4	1
COc1ccc(CCN(C)CCC[C@](C#N)(c2cc(OC)c(OC)c(OC)c2)C(C)C)cc1OC	2.04	1.75	14.3	1.8	0.07
CCN(CC)CCS(=O)(=O)[C@@H]1CCN2C(=O)c3coc(n3)CC(=O)C[C@H](O)/C=C(C)/C=C\CNC(=O)/C=C/[C@@H](C)[C@H](C(C)C)OC(=O)C12 (stereo partly drawn)	0.41	0.39	16	0.74	0.82
CC[C@H]1OC(=O)C(C)C(=O)C(C)[C@@H](O[C@@H]2O[C@H](C)C[C@H](N(C)C)[C@H]2O)[C@](C)(OC)CC(C)C(=O)C(C)[C@H]2N(CCCCn3cnc(-c4cccnc4)c3)C(=O)O[C@]12C (stereo partly drawn)	3.6	3	14	12	0.41
CN1CCN2c3ccccc3Cc3ccccc3[C@H]2C1	10.5	13.8	21.9	9.6	0.05
OC[C@@H]1O[C@@H](n2cnc3c2N=CNC[C@H]3O)C[C@H]1O	6	0.59	1.63	5.3	–
CN1c2ccccc2[C@@H](NCCCCCCC(=O)O)c2ccc(Cl)cc2S1(=O)=O	1.9	0.3	2.8	1.4	–
O=C(O)C1C[C@@H](C2CCCCC2)CN1C(=O)CP(=O)(O)CCCCc1ccccc1 (stereo partly drawn)	6.8	0.13	0.32	9.4	–
CNS(=O)(=O)Cc1ccc2[nH]cc(CCCN3CCN(c4ncncc4OC)CC3)c2c1	2.25	0.87	6.44	5.26	–
Nc1nc(C(=NO)C(=O)NC2C(=O)N3C(C(=O)O)=C(C=C4CCN([C@@H]5CCNC5)C4=O)CS[C@H]23)ns1 (stereo partly drawn)	3	0.27	1.5	3.3	0.62
C=Cc1c(C)c2[nH]c1=Cc1[nH]c(c(=CCC(=O)O)c1C)=Cc1[nH]c(c(C)c1CCC(=O)OC)C=C1NC(=C3C=CC(C(=O)OC)=C(C(=O)OC)[C@@]13C)C=2	6.6	0.63	1.6	5.6	–
Cc1cccc(Cl)c1C(=O)NC(Cc1ccc(NC(=O)c2c(Cl)cncc2Cl)cc1)C(=O)O (stereo not drawn)	1.3	0.3	3.7	3.3	0.1
CCCCCOc1ccc(-c2ccc(-c3ccc(C(=O)NC4C[C@@H](O)[C@@H](O)NC(=O)C5[C@@H](O)[C@@H](C)CN5C(=O)C([C@@H](C)O)NC(=O)C([C@H](O)[C@@H](O)c5ccc(O)cc5)NC(=O)C5C[C@@H](O)CN5C(=O)C([C@@H](C)O)NC4=O)cc3)cc2)cc1 (stereo partly drawn) ({pTerphenylCO(4''-OnC5H11)}-[ξOrn(4R-OH,5R-OH)][ξThr(3R)][ξPro(4R-OH)][ξhTyr(3S-OH,4S-OH)][ξThr(3R)][X4]; lactam 1-C)	45	0.57	0.21	40	–
CC[C@H](C)[C@@H]([C@@H](CC(=O)N1CCC[C@H]1[C@H](OC)C(C)C(=O)NCCc1ccccc1)OC)N(C)C(=O)C(NC(=O)C(C(C)C)N(C)C)C(C)C (stereo partly drawn)	4.6	0.42	1.6	5.67	–
Nc1ccn([C@@H]2CO[C@H](CO)S2)c(=O)n1	3.6	0.84	3.9	8.92	–
Nc1n[n+]([O-])c2ccccc2[n+]1[O-]	–	–	–	–	0.81
